Measured values as given in PubChem BioAssay AID1259407 (Chemical Carcinogenesis Research Information System (CCRIS), 2018).
Activity calls are given as the source filed them. No rule for the calls is given here.

Tested on: CCRIS mutagenicity, Ames/micronucleus/aberration tests
Assay: CCRIS mutagenicity studies
[1] = Test System: AMES SALMONELLA TYPHIMURIUM, Strain/Indicator: TA98, Metabolic Activation: NONE, Method: PREINCUBATION
[2] = Test System: AMES SALMONELLA TYPHIMURIUM, Strain/Indicator: TA100, Metabolic Activation: NONE, Method: PREINCUBATION

With C[C@@H]1O[C@@H](OC[C@H]2O[C@@H](Oc3c(-c4ccc(O)c(O)c4)oc4cc(O)cc(O)c4c3=O)[C@H](O)[C@@H](O)[C@@H]2O)[C@H](O)[C@H](O)[C@H]1O the mutagenic call (Test System: Ames Salmonella typhimurium, Strain/Indicator: TA98, Metabolic Activation: None, Method: Standard plate) was “inactive; negative” and the mutagenic call (Test System: Ames Salmonella typhimurium, Strain/Indicator: TA98, Metabolic Activation: Rat, Liver, S-9, Aroclor 1254, Method: Standard Plate) was “inactive; negative”.

In the case of CCN(N=O)C(N)=O, the mutagenic call (End Point: IN VITRO CHROMOSOMAL ABERRATIONS, Test System: CHINESE HAMSTER V79-E CELLS, Metabolic Activation: NONE) is reported as “inactive; negative”, the mutagenic call (End Point: IN VITRO MICRONUCLEUS, Test System: CHL/IU CELLS, Metabolic Activation: NONE) is reported as “active; positive” and the mutagenic call (End Point: IN VIVO MICRONUCLEUS, Test System: BLOOD ERYTHROCYTES, Species: MOUSE, Strain/Sex: CD-1/MALE, Route: ORAL) is reported as “active; positive”. For the same compound, the mutagenic call (Test System: AMES SALMONELLA TYPHIMURIUM, Strain/Indicator: TA98, Metabolic Activation: HAMSTER, LIVER, S-9, AROCLOR 1254 (30%), Method: PREINCUBATION) was “active; positive”, the mutagenic call [1] was “active; positive” and the mutagenic call (Test System: AMES SALMONELLA TYPHIMURIUM, Strain/Indicator: TA98, Metabolic Activation: RAT, LIVER, S-9, AROCLOR 1254 (30%), Method: PREINCUBATION) was “active; positive”. For the same compound, the mutagenic call (Test System: AMES SALMONELLA TYPHIMURIUM, Strain/Indicator: TA100, Metabolic Activation: HAMSTER, LIVER, S-9, AROCLOR 1254 (30%), Method: PREINCUBATION) was “active; positive”, the mutagenic call [2] was “active; positive” and the mutagenic call (Test System: AMES SALMONELLA TYPHIMURIUM, Strain/Indicator: TA100, Metabolic Activation: NONE, Method: STANDARD PLATE) was “active; positive”. For the same compound, the mutagenic call (Test System: AMES SALMONELLA TYPHIMURIUM, Strain/Indicator: TA100, Metabolic Activation: RAT, LIVER, S-9, AROCLOR 1254 (30%), Method: PREINCUBATION) was “active; positive”, the mutagenic call (Test System: AMES SALMONELLA TYPHIMURIUM, Strain/Indicator: TA100, Metabolic Activation: RAT, LIVER, S-9, AROCLOR 1254, Method: PREINCUBATION) was “active; positive” and the mutagenic call (Test System: AMES SALMONELLA TYPHIMURIUM, Strain/Indicator: TA102, Metabolic Activation: RAT, LIVER, S-9, AROCLOR 1254, Method: PREINCUBATION) was “active; positive”. The mutagenic call (Test System: AMES SALMONELLA TYPHIMURIUM, Strain/Indicator: TA104, Metabolic Activation: RAT, LIVER, S-9, AROCLOR 1254, Method: PREINCUBATION) was “active; positive”, the mutagenic call (Test System: AMES SALMONELLA TYPHIMURIUM, Strain/Indicator: TA1535, Metabolic Activation: NONE) was “active; positive” and the mutagenic call (Test System: AMES SALMONELLA TYPHIMURIUM, Strain/Indicator: TA1535, Metabolic Activation: NONE, Method: PREINCUBATION) was “active; positive”. The mutagenic call (Test System: AMES SALMONELLA TYPHIMURIUM, Strain/Indicator: TA1535, Metabolic Activation: RAT, LIVER, S-9, AROCLOR 1254, Method: STANDARD PLATE) was “active; positive”, the mutagenic call (Test System: AMES SALMONELLA TYPHIMURIUM, Strain/Indicator: YG7104, Metabolic Activation: NONE, Method: PREINCUBATION) was “active; positive” and the mutagenic call (Test System: AMES SALMONELLA TYPHIMURIUM, Strain/Indicator: YG7108, Metabolic Activation: NONE, Method: PREINCUBATION) was “active; positive”. The mutagenic call (Test System: AMES SALMONELLA TYPHIMURIUM, Strain/Indicator: YG7112, Metabolic Activation: NONE, Method: PREINCUBATION) was “active; positive”, the mutagenic call (Test System: AMES SALMONELLA TYPHIMURIUM, Strain/Indicator: YG7113, Metabolic Activation: NONE, Method: PREINCUBATION) was “active; positive” and the mutagenic call (Test System: CHINESE HAMSTER OVARY, Strain/Indicator: CHO-K1-BH4 (HGPRT), Metabolic Activation: NONE, Method: STANDARD PLATE) was “active; positive”. For the same compound, the mutagenic call (Test System: CHINESE HAMSTER V-79, Strain/Indicator: V-79/6-THIOGUANINE, Metabolic Activation: NONE, Method: FLASK ASSAY) was “active; positive”, the mutagenic call (Test System: E. COLI B, Strain/Indicator: H/R30R, Metabolic Activation: NONE) was “active; positive” and the mutagenic call (Test System: E. COLI B, Strain/Indicator: HS30R, Metabolic Activation: NONE) was “active; positive”. The mutagenic call (Test System: E. COLI, Strain/Indicator: WP2, Metabolic Activation: NONE, Method: STANDARD PLATE) was “active; positive”, the mutagenic call (Test System: E. COLI, Strain/Indicator: WP2 UVRA, Metabolic Activation: NONE, Method: STANDARD PLATE) was “active; positive” and the mutagenic call (Test System: LacZ plasmid mouse (C57BL/6J transgenic), Strain/Indicator: LacZ Mutant frequency, Method: Bone marrow and liver harvested 35 days after last dose) was “active; positive”. For the same compound, the mutagenic call (Test System: LacZ transgenic mouse (Muta Mouse), Strain/Indicator: LacZ Mutant frequency, Method: Bone marrow and liver harvested 35 days after last dose) was “active; positive”, the mutagenic call (Test System: MOUSE LYMPHOMA, Strain/Indicator: L5178Y(TK+/TK-), Metabolic Activation: NONE, Method: MICROWELL) was “active; positive” and the mutagenic call (Test System: UDS HUMAN FIBROBLASTS, Strain/Indicator: THY INCORP (NON-S-PHASE), Metabolic Activation: NONE, Method: LIQUID SCINTILLATION COUNTING) was “active; positive”. The mutagenic call (Test System: UDS HUMAN TRACHEAL EPITHELIAL CELLS, Strain/Indicator: THY INCORP, Metabolic Activation: NONE, Method: AUTORADIOGRAPHY) was “active; positive” and the mutagenic call (Test System: UDS MOUSE SPERMATOGONIAL AND POSTSPERMATOGONIAL CELLS IN VIVO, Strain/Indicator: THYMIDINE INCORPORATION, Metabolic Activation: NONE, Method: AUTORADIOGRAPHY) was “active; positive”.

For C=C1C[C@@]23CC[C@H]4[C@@](C)(CCC[C@@]4(C)C(=O)O)[C@@H]2CC[C@]1(O)C3, the mutagenic call (Test System: AMES SALMONELLA TYPHIMURIUM, Strain/Indicator: TA97, Metabolic Activation: NONE, Method: PREINCUBATION) was “inactive; negative”, the mutagenic call (Test System: AMES SALMONELLA TYPHIMURIUM, Strain/Indicator: TA97, Metabolic Activation: RAT, LIVER, S-9, PCB, Method: PREINCUBATION) was “inactive; negative” and the mutagenic call [1] was “inactive; negative”. For the same compound, the mutagenic call (Test System: AMES SALMONELLA TYPHIMURIUM, Strain/Indicator: TA98, Metabolic Activation: RAT, LIVER, S-9, PCB, Method: PREINCUBATION) was “inactive; negative”, the mutagenic call (Test System: AMES SALMONELLA TYPHIMURIUM, Strain/Indicator: TA98, Metabolic Activation: RAT, LIVER, S-9, SODIUM PHENOBARBITAL AND 5,6-BENZOFLAVONE, Method: PREINCUBATION) was “inactive; negative” and the mutagenic call [2] was “inactive; negative”. For the same compound, the mutagenic call (Test System: AMES SALMONELLA TYPHIMURIUM, Strain/Indicator: TA100, Metabolic Activation: RAT, LIVER, S-9, PCB, Method: PREINCUBATION) was “inactive; negative”, the mutagenic call (Test System: AMES SALMONELLA TYPHIMURIUM, Strain/Indicator: TA100, Metabolic Activation: RAT, LIVER, S-9, SODIUM PHENOBARBITAL AND 5,6-BENZOFLAVONE, Method: PREINCUBATION) was “inactive; negative” and the mutagenic call (Test System: AMES SALMONELLA TYPHIMURIUM, Strain/Indicator: TA102, Metabolic Activation: NONE, Method: PREINCUBATION) was “inactive; negative”. The mutagenic call (Test System: AMES SALMONELLA TYPHIMURIUM, Strain/Indicator: TA102, Metabolic Activation: RAT, LIVER, S-9, PCB, Method: PREINCUBATION) was “inactive; negative”, the mutagenic call (Test System: AMES SALMONELLA TYPHIMURIUM, Strain/Indicator: TA104, Metabolic Activation: NONE, Method: PREINCUBATION) was “inactive; negative” and the mutagenic call (Test System: AMES SALMONELLA TYPHIMURIUM, Strain/Indicator: TA104, Metabolic Activation: RAT, LIVER, S-9, PCB, Method: PREINCUBATION) was “inactive; negative”. For the same compound, the mutagenic call (Test System: AMES SALMONELLA TYPHIMURIUM, Strain/Indicator: TM677, Metabolic Activation: NONE, Method: PREINCUBATION) was “inactive; negative”, the mutagenic call (Test System: AMES SALMONELLA TYPHIMURIUM, Strain/Indicator: TM677, Metabolic Activation: RAT, LIVER, MICROSOMES, AROCLOR 1254, Method: SUSPENSION/PLATE) was “active; positive” and the mutagenic call (Test System: AMES SALMONELLA TYPHIMURIUM, Strain/Indicator: TM677, Metabolic Activation: RAT, LIVER, S-9, AROCLOR 1254, Method: PREINCUBATION) was “active; positive”. The mutagenic call (Test System: AMES SALMONELLA TYPHIMURIUM, Strain/Indicator: TM677, Metabolic Activation: RAT, LIVER, S-9, AROCLOR 1254, Method: SUSPENSION/PLATE) was “active; positive”.
